Measurements taken from ChEMBL document CHEMBL5724914, “Linking interpersonal differences in gut microbiota composition and drug biotransformation activity” (2024).

Key:
[1] = The drug is tested on Z-025 corresponding to rabbit gut metagenome with ENA study accession number: PRJEB37062 and ENA sample accession number: ERS12561824 for biotransformation under anaerobic condition. The drug concentrations were measured over 9 timepoints collected between 0 and 24 hours of incubation by liquid-chromatography-coupled mass spectrometry (LC–MS); conditions: 2 µM
[2] = The drug is tested on Z-011 corresponding to mouse gut metagenome with ENA study accession number: PRJEB37062 and ENA sample accession number: ERS12561811 for biotransformation under anaerobic condition. The drug concentrations were measured over 9 timepoints collected between 0 and 24 hours of incubation by liquid-chromatography-coupled mass spectrometry (LC–MS); conditions: 2 µM
[3] = The drug is tested on Z-003 corresponding to pig gut metagenome with ENA study accession number: PRJEB37062 and ENA sample accession number: ERS12561803 for biotransformation under anaerobic condition. The drug concentrations were measured over 9 timepoints collected between 0 and 24 hours of incubation by liquid-chromatography-coupled mass spectrometry (LC–MS); conditions: 2 µM
[4] = human gut metagenome, 24 h, 2 µM
[5] = human gut metagenome, 24 h, 2 µM; remark: listed apart in the source
[6] = The drug is tested on WLS-220 corresponding to human gut metagenome with ENA study accession number: PRJEB37062 and ENA sample accession number: ERS12561769 for biotransformation under anaerobic condition. The drug concentrations were measured over 9 timepoints collected between 0 and 24 hours of incubation by liquid-chromatography-coupled mass spectrometry (LC–MS); conditions: 2 µM
[7] = The drug is tested on WLS-240 corresponding to human gut metagenome with ENA study accession number: PRJEB37062 and ENA sample accession number: ERS12561773 for biotransformation under anaerobic condition. The drug concentrations were measured over 9 timepoints collected between 0 and 24 hours of incubation by liquid-chromatography-coupled mass spectrometry (LC–MS); conditions: 2 µM
[8] = The drug is tested on Z-017 corresponding to mouse gut metagenome with ENA study accession number: PRJEB37062 and ENA sample accession number: ERS12561816 for biotransformation under anaerobic condition. The drug concentrations were measured over 9 timepoints collected between 0 and 24 hours of incubation by liquid-chromatography-coupled mass spectrometry (LC–MS); conditions: 2 µM
[9] = human gut metagenome, 24 h, 2 µM; remark: listed apart in the source
[10] = human gut metagenome, 24 h, 2 µM; remark: listed apart in the source
[11] = The drug is tested on Z-023 corresponding to metagenome with ENA study accession number: PRJEB37062 and ENA sample accession number: ERS12561822 for biotransformation under anaerobic condition. The drug concentrations were measured over 9 timepoints collected between 0 and 24 hours of incubation by liquid-chromatography-coupled mass spectrometry (LC–MS); conditions: 2 µM
[12] = The drug is tested on WLS-090 corresponding to human gut metagenome with ENA study accession number: PRJEB37062 and ENA sample accession number: ERS12561753 for biotransformation under anaerobic condition. The drug concentrations were measured over 9 timepoints collected between 0 and 24 hours of incubation by liquid-chromatography-coupled mass spectrometry (LC–MS); conditions: 2 µM
[13] = The drug is tested on Z-013 corresponding to rabbit gut metagenome with ENA study accession number: PRJEB37062 and ENA sample accession number: ERS12561813 for biotransformation under anaerobic condition. The drug concentrations were measured over 9 timepoints collected between 0 and 24 hours of incubation by liquid-chromatography-coupled mass spectrometry (LC–MS); conditions: 2 µM
[14] = human gut metagenome, 24 h, 2 µM; remark: listed apart in the source
[15] = human gut metagenome, 24 h, 2 µM; remark: listed apart in the source
[16] = human gut metagenome, 24 h, 2 µM; remark: listed apart in the source
[17] = The drug is tested on Z-009 corresponding to pig gut metagenome with ENA study accession number: PRJEB37062 and ENA sample accession number: ERS12561809 for biotransformation under anaerobic condition. The drug concentrations were measured over 9 timepoints collected between 0 and 24 hours of incubation by liquid-chromatography-coupled mass spectrometry (LC–MS); conditions: 2 µM
[18] = The drug is tested on Z-030 corresponding to mouse gut metagenome with ENA study accession number: PRJEB37062 and ENA sample accession number: ERS12561829 for biotransformation under anaerobic condition. The drug concentrations were measured over 9 timepoints collected between 0 and 24 hours of incubation by liquid-chromatography-coupled mass spectrometry (LC–MS); conditions: 2 µM
[19] = human gut metagenome, 24 h, 2 µM; remark: listed apart in the source
[20] = The drug is tested on Z-010 corresponding to metagenome with ENA study accession number: PRJEB37062 and ENA sample accession number: ERS12561810 for biotransformation under anaerobic condition. The drug concentrations were measured over 9 timepoints collected between 0 and 24 hours of incubation by liquid-chromatography-coupled mass spectrometry (LC–MS); conditions: 2 µM
Note: call rule not given here.

| Compound | Bacterial Biotransformation [1] | Bacterial Biotransformation [2] | Bacterial Biotransformation [3] | Bacterial Biotransformation [4] | Bacterial Biotransformation [5] | Bacterial Biotransformation [6] | Bacterial Biotransformation [7] | Bacterial Biotransformation [8] | Bacterial Biotransformation [9] | Bacterial Biotransformation [10] | Bacterial Biotransformation [11] | Bacterial Biotransformation [12] | Bacterial Biotransformation [13] | Bacterial Biotransformation [14] | Bacterial Biotransformation [15] | Bacterial Biotransformation [16] | Bacterial Biotransformation [17] | Bacterial Biotransformation [18] | Bacterial Biotransformation [19] | Bacterial Biotransformation [20] |
| --- | --- | --- | --- | --- | --- | --- | --- | --- | --- | --- | --- | --- | --- | --- | --- | --- | --- | --- | --- | --- |
| CCN(CC)C(=O)C1(c2ccccc2)CC1CN (centres undefined) | Compound NOT metabolized | Compound NOT metabolized | Compound NOT metabolized | Compound NOT metabolized | Compound NOT metabolized | Compound NOT metabolized | Compound NOT metabolized | Compound NOT metabolized | Compound NOT metabolized | Compound NOT metabolized | Compound NOT metabolized | Compound NOT metabolized | Compound NOT metabolized | Compound NOT metabolized | Compound NOT metabolized | Compound NOT metabolized | Compound NOT metabolized | Compound NOT metabolized | Compound NOT metabolized | Compound NOT metabolized |
| Nc1nc(NC2CC2)c2ncn([C@H]3C=C[C@@H](CO)C3)c2n1.Nc1nc(NC2CC2)c2ncn([C@H]3C=C[C@@H](CO)C3)c2n1.O=S(=O)(O)O [ABACAVIR SULFATE] | Compound NOT metabolized | Compound metabolized | Compound NOT metabolized | Compound metabolized | Compound NOT metabolized | Compound metabolized | Compound metabolized | Compound NOT metabolized | Compound metabolized | Compound metabolized | Compound NOT metabolized | Compound metabolized | Compound NOT metabolized | Compound NOT metabolized | Compound metabolized | Compound metabolized | Compound NOT metabolized | Compound NOT metabolized | Compound metabolized | Compound metabolized |
| CCN(CC)CCNC(=O)c1ccc(NC(C)=O)cc1 [ACECAINIDE] | Compound NOT metabolized | Compound NOT metabolized | Compound NOT metabolized | Compound metabolized | Compound NOT metabolized | Compound NOT metabolized | Compound metabolized | Compound NOT metabolized | Compound NOT metabolized | Compound NOT metabolized | Compound NOT metabolized | Compound metabolized | Compound NOT metabolized | Compound NOT metabolized | Compound metabolized | Compound NOT metabolized | Compound NOT metabolized | Compound NOT metabolized | Compound NOT metabolized | Compound NOT metabolized |
| O=C1CN2Cc3c(ccc(Cl)c3Cl)N=C2N1 [ANAGRELIDE] | Compound NOT metabolized | Compound NOT metabolized | Compound NOT metabolized | Compound metabolized | Compound metabolized | Compound metabolized | Compound metabolized | Compound NOT metabolized | Compound metabolized | Compound metabolized | Compound metabolized | Compound metabolized | Compound NOT metabolized | Compound NOT metabolized | Compound NOT metabolized | Compound NOT metabolized | Compound NOT metabolized | Compound NOT metabolized | Compound NOT metabolized | Compound metabolized |
| CN(C)C(=O)Oc1cc(OC(=O)N(C)C)cc(C(O)CNC(C)(C)C)c1 (centres undefined) [BAMBUTEROL] | Compound metabolized | Compound NOT metabolized | Compound NOT metabolized | Compound metabolized | Compound NOT metabolized | Compound metabolized | Compound metabolized | Compound NOT metabolized | Compound metabolized | Compound metabolized | Compound metabolized | Compound metabolized | Compound NOT metabolized | Compound metabolized | Compound NOT metabolized | Compound NOT metabolized | Compound metabolized | Compound NOT metabolized | Compound metabolized | Compound NOT metabolized |
| CC(=O)OCC(=O)NCCCOc1cccc(CN2CCCCC2)c1 [ROXATIDINE ACETATE] | Compound metabolized | Compound metabolized | Compound metabolized | Compound metabolized | Compound metabolized | Compound metabolized | Compound metabolized | Compound metabolized | Compound metabolized | Compound metabolized | Compound metabolized | Compound metabolized | Compound NOT metabolized | Compound metabolized | Compound metabolized | – | Compound metabolized | Compound NOT metabolized | Compound metabolized | Compound metabolized |
